# Source: patent publication US20090048258A1, “Amide Compound” (priority 2005, published 2009)
# Target: T1, Human DGAT1 (Homo sapiens, UniProt O75907)
# T1 construct: my translation of the primer: M-G-DYKDDDD-GDRGSSRRR) (N); made in house; host or cells: Sf9 insect cells (recombinant baculovirus BAC-DGAT1, pFASTBAC1); microsome fraction
# T1 sequence (O75907 1-488): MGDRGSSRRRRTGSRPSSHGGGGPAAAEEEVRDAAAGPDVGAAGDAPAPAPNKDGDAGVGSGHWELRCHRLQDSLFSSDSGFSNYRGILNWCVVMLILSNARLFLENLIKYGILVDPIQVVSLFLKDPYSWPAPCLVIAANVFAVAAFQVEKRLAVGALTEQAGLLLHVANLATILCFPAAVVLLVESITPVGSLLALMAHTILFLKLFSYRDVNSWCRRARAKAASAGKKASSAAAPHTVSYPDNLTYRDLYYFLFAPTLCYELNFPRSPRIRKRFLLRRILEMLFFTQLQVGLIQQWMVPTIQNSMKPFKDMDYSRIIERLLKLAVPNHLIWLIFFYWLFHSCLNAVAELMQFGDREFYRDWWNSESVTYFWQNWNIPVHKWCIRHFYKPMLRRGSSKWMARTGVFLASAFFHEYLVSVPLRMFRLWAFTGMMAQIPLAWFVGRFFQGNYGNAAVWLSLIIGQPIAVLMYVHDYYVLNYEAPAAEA
# Test: DGAT inhibitory activity: [14C]-triglyceride synthesis by DGAT1 high expression Sf9 microsome
# Assay type: biochemical
# Conditions: Table 2, 25 μM dioleoylglycerol, 25 μM [14C]-Oleoyl-CoA, 32° C., 15 min, read-out: DGAT inhibitory activity (according to IC50)
# Outline: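 DGAT1 was overexpressed from recombinant baculovirus in Sf9 cells, and microsomes from these cells were the enzyme source. Reactions ran in 100 mM Tris-HCl pH 7.5, 250 mM sucrose, 150 mM MgCl2 and 0.01% BSA. [14C]-triglyceride was extracted into chloroform, separated by TLC and quantified by imaging plate, with inhibition calculated against control and blank (no microsome) counts.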
row,Compound,IC50 [nM]
1,"CCOc1ccc(C(=O)CCC(=O)Nc2cc(-c3ccc(CCC(=O)O)cc3)cc(-c3ccccc3)n2)cc1OCC [Example 125, 3-[4-(2-{[4-(3,4-diethoxyphenyl)-4-oxobutanoyl]amino}-6-phenylpyridin-4-yl)phenyl]propanoic acid]",500 to 10000
2,"CCOc1ccc(C(=O)CCC(=O)Nc2cc(-c3ccc(/C=C/C(=O)OC)cc3)cc(-c3ccccc3)n2)cc1OCC [Example 127, methyl (2E)-3-[4-(2-{[4-(3,4-diethoxyphenyl)-4-oxobutanoyl]amino}-6-phenylpyridin-4-yl)phenyl]acrylate]",500 to 10000
3,"CCOc1ccc(C(=O)CCC(=O)Nc2cc(-c3ccc(N4CCOCC4)cc3)cc(-c3ccccc3)n2)cc1OCC [Example 129, 4-(3,4-diethoxyphenyl)-N-[4-(4-(morpholin-4-yl)phenyl)-6-phenylpyridin-2-yl]-4-oxobutanamide]",500 to 10000
4,"CCOc1ccc(C(=O)CCC(=O)Nc2cc(-c3ccc(CN4CCOCC4)cc3)cc(-c3ccccc3)n2)cc1OCC [Example 130, 4-(3,4-diethoxyphenyl)-N-{4-[4-(morpholin-4-ylmethyl)phenyl]-6-phenylpyridin-2-yl}-4-oxobutanamide]",500 to 10000
5,"CCCCOc1cccc(-c2cc(NC(=O)CCC(=O)c3ccc(OCC)c(OCC)c3)nc(-c3ccccc3)c2)c1 [Example 135, N-[4-(3-butoxyphenyl)-6-phenylpyridin-2-yl]-4-(3,4-diethoxyphenyl)-4-oxobutanamide]",500 to 10000
6,"CCOc1ccc(C(=O)CCC(=O)Nc2cc(-c3cccc(CO)c3)cc(-c3ccccc3)n2)cc1OCC [Example 136, 4-(3,4-diethoxyphenyl)-N-{4-[3-(hydroxymethyl)phenyl]-6-phenylpyridin-2-yl}-4-oxobutanamide]",50 to 500
7,"CCOc1ccc(C(=O)CCC(=O)Nc2cc(-c3cccc(CCCO)c3)cc(-c3ccccc3)n2)cc1OCC [Example 137, 4-(3,4-diethoxyphenyl)-N-{4-[3-(3-hydroxypropyl)phenyl]-6-phenylpyridin-2-yl}-4-oxobutanamide]",50 to 500
8,"CCOc1ccc(C(=O)CCC(=O)Nc2cc(-c3cccc(C(=O)O)c3)cc(-c3ccccc3)n2)cc1OCC [Example 138, 3-(2-{[4-(3,4-diethoxyphenyl)-4-oxobutanoyl]amino}-6-phenylpyridin-4-yl)benzoic acid]",500 to 10000
9,"CCOc1ccc(C(=O)CCC(=O)Nc2cc(-c3cccc(C(=O)OC)c3)cc(-c3ccccc3)n2)cc1OCC [Example 139, methyl 3-(2-{[4-(3,4-diethoxyphenyl)-4-oxobutanoyl]amino}-6-phenylpyridin-4-yl)benzoate]",500 to 10000
10,"CCOc1ccc(C(=O)CCC(=O)Nc2cc(-c3cccc(C(C)=O)c3)cc(-c3ccccc3)n2)cc1OCC [Example 140, N-[4-(3-acetylphenyl)-6-phenylpyridin-2-yl]-4-(3,4-diethoxyphenyl)-4-oxobutanamide]",50 to 500
11,"CCOc1ccc(C(=O)CCC(=O)Nc2cc(-c3cccc(CCC(=O)O)c3)cc(-c3ccccc3)n2)cc1OCC [Example 141, 3-[3-(2-{[4-(3,4-diethoxyphenyl)-4-oxobutanoyl]amino}-6-phenylpyridin-4-yl)phenyl]propanoic acid]",500 to 10000
12,"CCOc1ccc(C(=O)CCC(=O)Nc2cc(-c3cccc(CCC(=O)OC)c3)cc(-c3ccccc3)n2)cc1OCC [Example 142, methyl 3-[3-(2-{[4-(3,4-diethoxyphenyl)-4-oxobutanoyl]amino}-6-phenylpyridin-4-yl)phenyl]propanoate]",50 to 500
13,"CCOc1ccc(C(=O)CCC(=O)Nc2cc(-c3cccc(OC(F)(F)F)c3)cc(-c3ccccc3)n2)cc1OCC [Example 143, 4-(3,4-diethoxyphenyl)-4-oxo-N-{6-phenyl-4-[3-(trifluoromethoxy)phenyl]pyridin-2-yl}butanamide]",50 to 500
14,"CCOc1ccc(C(=O)CCC(=O)Nc2cc(-c3ccccc3C(=O)O)cc(-c3ccccc3)n2)cc1OCC [Example 148, 2-(2-{[4-(3,4-diethoxyphenyl)-4-oxobutanoyl]amino}-6-phenylpyridin-4-yl)benzoic acid]",500 to 10000
15,"CCOc1ccc(C(=O)CCC(=O)Nc2cc(-c3cc(OC)c(OC)c(OC)c3)cc(-c3ccccc3)n2)cc1OCC [Example 150, 4-(3,4-diethoxyphenyl)-4-oxo-N-[6-phenyl-4-(3,4,5-trimethoxyphenyl)pyridin-2-yl]butanamide]",500 to 10000
16,"CCCCCC/C=C/c1cc(NC(=O)CCC(=O)c2ccc(OCC)c(OCC)c2)nc(-c2ccccc2)c1 [Example 152, 4-(3,4-diethoxyphenyl)-N-{4-[(1E)-octa-1-en-1-yl]-6-phenylpyridin-2-yl}-4-oxobutanamide]",500 to 10000
17,"Cn1cc(-c2cc(NC(=O)CCC(=O)c3ccc4c(c3)CCO4)nc(-c3ccccc3)c2)cn1 [Example 153, 4-(2,3-dihydro-1-benzofuran-5-yl)-N-[4-(1-methyl-1H-pyrazol-4-yl)-6-phenylpyridin-2-yl]-4-oxobutanamide]",500 to 10000

# Further lines, results first:
row,IC50 [nM],Compound
1,10 to 50,"CCOc1ccc(C(=O)CCC(=O)Nc2cc(-c3ccc(CO)cc3)cc(-c3ccccc3)n2)cc1OCC [Example 124, 4-(3,4-diethoxyphenyl)-N-{4-[4-(hydroxymethyl)phenyl]-6-phenylpyridin-2-yl}-4-oxobutanamide]"
2,50 to 500,"CCOc1ccc(C(=O)CCC(=O)Nc2cc(-c3ccc(CCC(=O)OC)cc3)cc(-c3ccccc3)n2)cc1OCC [Example 126, methyl 3-[4-(2-{[4-(3,4-diethoxyphenyl)-4-oxobutanoyl]amino}-6-phenylpyridin-4-yl)phenyl]propanoate]"
3,10 to 50,"CCOc1ccc(C(=O)CCC(=O)Nc2cc(-c3ccc(C(N)=O)cc3)cc(-c3ccccc3)n2)cc1OCC [Example 128, 4-(2-{[4-(3,4-diethoxyphenyl)-4-oxobutanoyl]amino}-6-phenylpyridin-4-yl)benzamide]"
4,50 to 500,"CCOc1ccc(C(=O)CCC(=O)Nc2cc(-c3ccc(N(C)C)cc3)cc(-c3ccccc3)n2)cc1OCC [Example 131, 4-(3,4-diethoxyphenyl)-N-{4-[4-(dimethylamino)phenyl]-6-phenylpyridin-2-yl}-4-oxobutanamide]"
5,50 to 500,"CCOc1ccc(C(=O)CCC(=O)Nc2cc(-c3cccc(C#N)c3)cc(-c3ccccc3)n2)cc1OCC [Example 132, N-[4-(3-cyanophenyl)-6-phenylpyridin-2-yl]-4-(3,4-diethoxyphenyl)-4-oxobutanamide]"
6,10 to 50,"CCOc1ccc(C(=O)CCC(=O)Nc2cc(-c3cccc(CC#N)c3)cc(-c3ccccc3)n2)cc1OCC [Example 133, N-{4-[3-(cyanomethyl)phenyl]-6-phenylpyridin-2-yl}-4-(3,4-diethoxyphenyl)-4-oxobutanamide]"
7,10 to 50,"CCOc1ccc(C(=O)CCC(=O)Nc2cc(-c3cccc(O)c3)cc(-c3ccccc3)n2)cc1OCC [Example 134, 4-(3,4-diethoxyphenyl)-N-[4-(3-hydroxyphenyl)-6-phenylpyridin-2-yl]-4-oxobutanamide]"
8,≤ 10,"CCOc1ccc(C(=O)CCC(=O)Nc2cc(-c3ccccc3C#N)cc(-c3ccccc3)n2)cc1OCC [Example 144, N-[4-(2-cyanophenyl)-6-phenylpyridin-2-yl]-4-(3,4-diethoxyphenyl)-4-oxobutanamide]"
9,≤ 10,"CCOc1ccc(C(=O)CCC(=O)Nc2cc(-c3ccccc3O)cc(-c3ccccc3)n2)cc1OCC [Example 145, 4-(3,4-diethoxyphenyl)-N-[4-(2-hydroxyphenyl)-6-phenylpyridin-2-yl]-4-oxobutanamide]"
10,≤ 10,"CCOc1ccc(C(=O)CCC(=O)Nc2cc(-c3ccccc3OC)cc(-c3ccccc3)n2)cc1OCC [Example 146, 4-(3,4-diethoxyphenyl)-N-[4-(2-methoxyphenyl)-6-phenylpyridin-2-yl]-4-oxobutanamide]"
11,≤ 10,"CCOc1ccc(C(=O)CCC(=O)Nc2cc(-c3ccccc3CO)cc(-c3ccccc3)n2)cc1OCC [Example 147, 4-(3,4-diethoxyphenyl)-N-{4-[2-(hydroxymethyl)phenyl]-6-phenylpyridin-2-yl}-4-oxobutanamide]"
12,10 to 50,"CCOc1ccc(C(=O)CCC(=O)Nc2cc(-c3ccc(O)c(OC)c3)cc(-c3ccccc3)n2)cc1OCC [Example 149, 4-(3,4-diethoxyphenyl)-N-[4-(4-hydroxy-3-methoxyphenyl)-6-phenylpyridin-2-yl]-4-oxobutanamide]"
13,10 to 50,"CCOc1ccc(C(=O)CCC(=O)Nc2cc(-c3cc(C)c(O)c(C)c3)cc(-c3ccccc3)n2)cc1OCC [Example 151, 4-(3,4-diethoxyphenyl)-N-[4-(4-hydroxy-3,5-dimethylphenyl)-6-phenylpyridin-2-yl]-4-oxobutanamide]"
14,10 to 50,"O=C(CCC(=O)c1ccc2c(c1)CCO2)Nc1cc(-c2ccc3[nH]ccc3c2)cc(-c2ccccc2)n1 [Example 154, 4-(2,3-dihydro-1-benzofuran-5-yl)-N-[4-(1H-indol-5-yl)-6-phenylpyridin-2-yl]-4-oxobutanamide]"
